{"source": "PubChem BioAssay AID330", "about": "(DTP/NCI, 2004)", "tested_on": "P388 leukemia ip, CD2F1 mice, survival T/C", "test": "NCI In Vivo Anticancer Drug Screen. Data for tumor model P388 Leukemia (intraperitoneal) in CD2F1 (CDF1) mice", "settings": "endpoint: median survival time, higher = longer survival", "summary_of_the_method": "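Mice carrying the transplanted tumor received test compound or vehicle. Survival was recorded in each group, and the value is the treated-group measurement divided by that of the vehicle-treated control group.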", "key": {"[1]": {"settings": "dose: 6.25 mg/kg/injection, schedule: Q01DX009 (ip), vehicle: saline with Tween-80"}, "[2]": {"settings": "dose: 12.5 mg/kg/injection, schedule: Q01DX009 (ip), vehicle: saline with Tween-80"}, "[3]": {"settings": "dose: 50.0 mg/kg/injection, schedule: Q01DX009 (ip), vehicle: saline with Tween-80"}, "[4]": {"settings": "dose: 100.0 mg/kg/injection, schedule: Q01DX009 (ip), vehicle: saline with Tween-80"}, "[5]": {"settings": "dose: 200.0 mg/kg/injection, schedule: Q01DX009 (ip), vehicle: saline with Tween-80"}, "[6]": {"settings": "dose: 50.0 mg/kg/injection, schedule: Q01DX005 (ip), vehicle: saline with Tween-80"}, "[7]": {"settings": "dose: 100.0 mg/kg/injection, schedule: Q01DX005 (ip), vehicle: saline with Tween-80"}, "[8]": {"settings": "dose: 60.0 mg/kg/injection, schedule: Q01DX005 (ip), vehicle: saline with Tween-80"}, "[9]": {"settings": "dose: 120.0 mg/kg/injection, schedule: Q01DX005 (ip), vehicle: saline with Tween-80"}, "[10]": {"settings": "dose: 240.0 mg/kg/injection, schedule: Q01DX005 (ip), vehicle: saline with Tween-80"}, "[11]": {"settings": "dose: 50.0 mg/kg/injection, schedule: Q01DX005 (ip), vehicle: Klucel (hydroxypropylcellulose) (HPC)"}, "[12]": {"settings": "dose: 100.0 mg/kg/injection, schedule: Q01DX005 (ip), vehicle: Klucel (hydroxypropylcellulose) (HPC)"}}, "note": "Values joined by “and” are separate entries in the source; they are usually repeats but may differ in a detail not shown here. Equal entries are not always repeated. Inconclusive results and toxic doses are left out."}
{"smiles": "OCCNCCN1CCN(CCCN2c3ccccc3Sc3ccc(C(F)(F)F)cc32)CC1", "values": [{"measurement": "T/C", "setting": "dose: 3.12 mg/kg/injection, schedule: Q04DX003 (ip), vehicle: saline", "result": "99 % of control"}, {"measurement": "T/C", "setting": "dose: 6.25 mg/kg/injection, schedule: Q04DX003 (ip), vehicle: saline", "result": "99 % of control and 101 % of control and 88 % of control"}, {"measurement": "T/C", "setting": "dose: 12.5 mg/kg/injection, schedule: Q04DX003 (ip), vehicle: saline", "result": "101 % of control and 102 % of control and 90 % of control"}, {"measurement": "T/C", "setting": "dose: 25.0 mg/kg/injection, schedule: Q04DX003 (ip), vehicle: saline", "result": "104 % of control and 106 % of control and 93 % of control"}]}
{"smiles": "CC1=C(CO)C(=O)OC(C(C)C2CCC3C4CC5OC56C(O)CCC(=O)C6(C)C4CCC23C)C1", "note": "(centres undefined)", "values": [{"measurement": "T/C", "setting": "dose: 11.15 mg/kg/injection, schedule: Q01DX009 (ip), vehicle: saline + alcohol", "result": "95 % of control"}, {"measurement": "T/C", "setting": "dose: 22.3 mg/kg/injection, schedule: Q01DX009 (ip), vehicle: saline + alcohol", "result": "99 % of control"}, {"measurement": "T/C", "setting": "dose: 44.6 mg/kg/injection, schedule: Q01DX009 (ip), vehicle: saline + alcohol", "result": "101 % of control"}]}
{"smiles": "CCOC(=O)N1Cc2cc3ccccc3nc2C1", "values": [{"measurement": "T/C", "setting": "[1]", "result": "107 % of control"}, {"measurement": "T/C", "setting": "[2]", "result": "101 % of control"}, {"measurement": "T/C", "setting": "dose: 25.0 mg/kg/injection, schedule: Q01DX009 (ip), vehicle: saline with Tween-80", "result": "101 % of control"}, {"measurement": "T/C", "setting": "[3]", "result": "108 % of control"}]}
{"smiles": "C[Si](C)(CCCOCC1CO1)O[Si](C)(C)CCCOCC1CO1", "note": "(centres undefined)", "values": [{"measurement": "T/C", "setting": "[4]", "result": "100 % of control"}, {"measurement": "T/C", "setting": "[5]", "result": "101 % of control"}, {"measurement": "T/C", "setting": "dose: 400.0 mg/kg/injection, schedule: Q01DX009 (ip), vehicle: saline with Tween-80", "result": "114 % of control"}]}
{"smiles": "CC(O)C(NC(=O)c1ccccc1)C(=O)O", "note": "(centres undefined)", "values": [{"measurement": "T/C", "setting": "[3]", "result": "99 % of control"}, {"measurement": "T/C", "setting": "[4]", "result": "95 % of control"}, {"measurement": "T/C", "setting": "[5]", "result": "91 % of control"}]}
{"smiles": "c1ccc(P(CCNCCP(c2ccccc2)c2ccccc2)c2ccccc2)cc1", "values": [{"measurement": "T/C", "setting": "[6]", "result": "105 % of control"}, {"measurement": "T/C", "setting": "[7]", "result": "109 % of control"}]}
{"smiles": "CCn1c2nc(=O)n(C)c(=O)c-2[n+]([O-])c2cc(C)ccc21", "values": [{"measurement": "T/C", "setting": "dose: 6.25 mg/kg/injection, schedule: Q04DX003 (ip), vehicle: saline with Tween-80", "result": "88 % of control"}, {"measurement": "T/C", "setting": "dose: 12.5 mg/kg/injection, schedule: Q04DX003 (ip), vehicle: saline with Tween-80", "result": "86 % of control"}, {"measurement": "T/C", "setting": "dose: 25.0 mg/kg/injection, schedule: Q04DX003 (ip), vehicle: saline with Tween-80", "result": "88 % of control"}, {"measurement": "T/C", "setting": "dose: 50.0 mg/kg/injection, schedule: Q04DX003 (ip), vehicle: saline with Tween-80", "result": "86 % of control"}]}
{"smiles": "CC(=O)C1=C(O)C(=O)N(c2ccccc2)C1=O", "values": [{"measurement": "T/C", "setting": "[6]", "result": "97 % of control"}, {"measurement": "T/C", "setting": "[7]", "result": "102 % of control"}, {"measurement": "T/C", "setting": "dose: 200.0 mg/kg/injection, schedule: Q01DX005 (ip), vehicle: saline with Tween-80", "result": "100 % of control"}]}
{"smiles": "Cc1ccc(NC(=O)/C(Cl)=C2/Sc3ccccc3NC2=O)cc1", "values": [{"measurement": "T/C", "setting": "[8]", "result": "96 % of control"}, {"measurement": "T/C", "setting": "[9]", "result": "100 % of control"}, {"measurement": "T/C", "setting": "[10]", "result": "95 % of control"}]}
{"smiles": "CCNC(=O)OCc1c(COC(=O)NCC)c(-c2ccc(Cl)c(Cl)c2)n2c1CCC2", "values": [{"measurement": "T/C", "setting": "dose: 2.5 mg/kg/injection, schedule: Q01DX009 (ip), vehicle: distilled water + Tween-80", "result": "152 % of control"}, {"measurement": "T/C", "setting": "[1]", "result": "154 % of control and 168 % of control"}, {"measurement": "T/C", "setting": "dose: 10.0 mg/kg/injection, schedule: Q01DX009 (ip), vehicle: distilled water + Tween-80", "result": "180 % of control"}, {"measurement": "T/C", "setting": "[2]", "result": "166 % of control and 168 % of control and 170 % of control"}, {"measurement": "T/C", "setting": "dose: 20.0 mg/kg/injection, schedule: Q01DX009 (ip), vehicle: distilled water + Tween-80", "result": "90 % of control"}]}
{"smiles": "COc1ccc(/C=C2/C(=O)ON=C2C)cc1", "values": [{"measurement": "T/C", "setting": "[8]", "result": "108 % of control"}, {"measurement": "T/C", "setting": "[9]", "result": "110 % of control"}, {"measurement": "T/C", "setting": "[10]", "result": "109 % of control"}]}
{"smiles": "O=[N+]([O-])c1ccc(Sc2ccccn2)nc1Sc1ccccn1", "values": [{"measurement": "T/C", "setting": "dose: 0.79 mg/kg/injection, schedule: Q01DX009 (ip), vehicle: saline with Tween-80", "result": "100 % of control"}, {"measurement": "T/C", "setting": "dose: 1.56 mg/kg/injection, schedule: Q01DX009 (ip), vehicle: saline with Tween-80", "result": "104 % of control"}, {"measurement": "T/C", "setting": "dose: 3.12 mg/kg/injection, schedule: Q01DX009 (ip), vehicle: saline with Tween-80", "result": "100 % of control"}, {"measurement": "T/C", "setting": "[5]", "result": "92 % of control"}]}
{"smiles": "CCCCOc1ncnc2nc[nH]c12", "values": [{"measurement": "T/C", "setting": "[11]", "result": "103 % of control"}, {"measurement": "T/C", "setting": "[12]", "result": "103 % of control"}]}
{"smiles": "CCCn1c(C)nc2c(N)cc(Cl)cc21", "values": [{"measurement": "T/C", "setting": "dose: 12.5 mg/kg/injection, schedule: Q01DX005 (ip), vehicle: Klucel (hydroxypropylcellulose) (HPC)", "result": "99 % of control"}, {"measurement": "T/C", "setting": "dose: 25.0 mg/kg/injection, schedule: Q01DX005 (ip), vehicle: Klucel (hydroxypropylcellulose) (HPC)", "result": "95 % of control"}, {"measurement": "T/C", "setting": "[11]", "result": "103 % of control"}, {"measurement": "T/C", "setting": "[12]", "result": "105 % of control"}]}
{"smiles": "O=C1OC(c2ccccc2)(c2ccccc2)CC12CC(c1ccccc1)(c1ccccc1)OC2=O", "values": [{"measurement": "T/C", "setting": "[6]", "result": "91 % of control"}, {"measurement": "T/C", "setting": "[7]", "result": "94 % of control"}]}
